According to patent US20230159445A1, “STAT INHIBITORY COMPOUNDS AND COMPOSITIONS” (JANPIX LIMITED, priority 2020, published 2023):

Key:
[1] = tested on: normal human fibroblast (NHF) cells; assay: NHF Cell Cytotoxicity Assay (CellTiter-Blue, 72 h), off-target effects; format: cell-based; conditions: Homo sapiens, Fibroblast; pooled NHF cells
Experimental: In some embodiments, the off-target effects of the compounds are evaluated in healthy human cells, such as in a normal human fibroblast (NHF) cell cytotoxicity assay.
Cell viability was examined following treatment at various concentrations of inhibitor (0.097656-50 μM) using a cell Titer-Blue cell viability assay. 1×10^4 normal human fibroblast cells per well were plated in 96-well assay plates in culture medium. All cells are grown in DMEM, IMDM and RPMI-1640 were supplemented with 10% FBS. After 24 hours, test compounds and vehicle controls are added to appropriate wells so the final volume was 100 μl in each well. The cells are cultured for the desired test exposure period (72 hours) at 37° C. and 5% CO2. The assay plates are removed from 37° C. incubator and 20 μL/well of CellTiter-Blue® Reagent is added. The plates are incubated using standard cell culture conditions for 1-4 hours and the plates are shaken for 10 seconds and record fluorescence at 560/590nm. For each sample well, value is normalized between the DMSO control and the highest concentration in case of plateau, and converted into a percentage. In the absence of plateau, minimum lecture is obtained from a different sample within the same experiment. For each concentration, the four replicates are averaged and standard deviation calculated. Data is fitted to a log(inhibitor) vs response curve with variable slope model using Microsoft Excel, obtaining IC50 and Hill slope variables.
A person skilled in the art would appreciate that a higher IC50 value in this NHF assay can indicate lower off-target effects.

glutathione (GSH) = assay: Reactivity Profiling with Glutathione (GSH), half-life by HPLC; conditions: 5 mM glutathione (GSH) in IMDM with 10% FBS
MV4-11 cells = assay: MV4-11 Cell Cytotoxicity Assay (CellTiter-Blue, 72 h); format: cell-based, human; conditions: Homo sapiens, MV4-11; MV-4-11 cells
Summary of the method: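 Viability read-out: CellTiter-Blue, 1 h, fluorescence 560/590 nm. Preceded by 72 h exposure (37° C, 5% CO2) to twofold dilution series from 50 μM, triplicate, 0.5% DMSO vehicle, applied 24 h after plating.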

| Compound | half-life at 25 μM (glutathione (GSH)) | IC50 [1] | IC50 (MV4-11 cells) |
| --- | --- | --- | --- |
| COc1cc(C(=O)O)ccc1N(Cc1cc(C2CC2)cc(C(C)(C)C)c1)C(=O)CN(Cc1ccc(Cl)cc1)S(=O)(=O)c1c(F)c(F)c(F)c(F)c1F [Compound 1016, 4-(N-(3-(tert-butyl)-5-cyclopropylbenzyl)-2-(N-(4-chlorobenzyl)-(2,3,4,5,6-pentafluorophenyl)sulfon-amido)acetamido)-3-methoxybenzoic acid] | 4.12 to 9.23 h | 20 to 30 µM | 316 to 1000 nM |
| CN(C)c1cc(C(=O)O)ccc1N(Cc1cc(C2CC2)cc(C(C)(C)C)c1)C(=O)CN(Cc1ccc(Cl)cc1)S(=O)(=O)c1c(F)c(F)c(F)c(F)c1F [Compound 1041, 4-(N-(3-(tert-butyl)-5-cyclopropylbenzyl)-2-(N-(4-chlorobenzyl)-(2,3,4,5,6-pentafluorophenyl)sulfon-amido)acetamido)-3-(dimethylamino)benzoic acid] | 9.23 to 1670 h | 20 to 30 µM | 316 to 1000 nM |
| COc1cc(C(=O)O)ccc1N(Cc1cc(C2CC2)cc(C(C)(C)C)c1)C(=O)CN(Cc1ccccc1F)S(=O)(=O)c1c(F)c(F)c(F)c(F)c1F [Compound 1061, 4-(N-(3-(tert-butyl)-5-cyclopropylbenzyl)-2-(N-(2-fluorobenzyl)-(2,3,4,5,6-pentafluoro-phenyl)sulfonamido)acetamido)-3-methoxybenzoic acid] | 2.37 to 4.12 h | 10 to 20 µM | 0.01 to 316 nM |
| CN(C)c1cc(C(=O)O)ccc1N(Cc1cc(C2CC2)cc(N2CCCC2)c1)C(=O)CN(Cc1ccc(F)cc1Cl)S(=O)(=O)c1c(F)c(F)c(F)c(F)c1F [Compound 1212, 4-(2-(N-(2-chloro-4-fluorobenzyl)-(2,3,4,5,6-pentafluorophenyl)sulfon-amido)-N-(3-cyclopropyl-5-(pyrrolidin-1-yl)benzyl)acetamido)-3-(dimethylamino) benzoic acid] | – | 10 to 20 µM | 316 to 1000 nM |
| O=C(O)c1ccc(N(Cc2cc(C3CC3)cc(N3CCCC3)c2)C(=O)CN(Cc2ccc(F)cc2Cl)S(=O)(=O)c2c(F)c(F)c(F)c(F)c2F)c(OC2CCCC2)c1 [Compound 1239, 4-(2-(N-(2-chloro-4-fluorobenzyl)-(2,3,4,5,6-pentafluorophenyl)sulfon-amido)-N-(3-cyclopropyl-5-(pyrrolidin-1-yl)benzyl)acetamido)-3-(cyclopentyloxy)benzoic acid] | – | 20 to 30 µM | 0.01 to 316 nM |
| O=C(O)c1ccc(N(Cc2cc(C3CC3)cc(C3CC3)c2)C(=O)CN(Cc2ccc(F)cc2Cl)S(=O)(=O)c2c(F)c(F)c(F)c(F)c2F)c(N2CCCC2)c1 [Compound 1240, 4-(2-(N-(2-chloro-4-fluorobenzyl)-(2,3,4,5,6-pentafluorophenyl)sulfon-amido)-N-(3,5-dicyclopropylbenzyl)acetamido)-3-(pyrrolidin-1-yl)benzoic acid] | – | 10 to 20 µM | 0.01 to 316 nM |
| COCCOc1cc(C(=O)O)ccc1N(Cc1cc(C2CC2)cc(C2CC2)c1)C(=O)CN(Cc1ccc(F)cc1Cl)S(=O)(=O)c1c(F)c(F)c(F)c(F)c1F [Compound 1245, 4-(2-(N-(2-chloro-4-fluorobenzyl)-(2,3,4,5,6-pentafluorophenyl)sulfon-amido)-N-(3,5-dicyclopropylbenzyl)acetamido)-3-(2-methoxyethoxy)benzoic acid] | 2.37 to 4.12 h | 0.001 to 10 µM | – |
| Cc1cc(C(=O)O)ccc1N(Cc1cc(C2CC2)cc(C(C)(C)C)c1)C(=O)CN(Cc1ccc(F)cc1Cl)S(=O)(=O)c1c(F)c(F)c(F)c(F)c1F [Compound 1250, 4-(N-(3-(tert-butyl)-5-cyclopropylbenzyl)-2-(N-(2-chloro-4-fluorobenzyl)-(2,3,4,5,6-pentafluorophenyl)sulfon-amido)acetamido)-3-methylbenzoic acid] | – | 0.001 to 10 µM | 0.01 to 316 nM |
| CC(C)COc1cc(C(=O)O)ccc1N(Cc1cc(C2CC2)cc(C2CC2)c1)C(=O)CN(Cc1ccc(F)cc1Cl)S(=O)(=O)c1c(F)c(F)c(F)c(F)c1F [Compound 1255, 4-(2-(N-(2-chloro-4-fluorobenzyl)-(2,3,4,5,6-pentafluorophenyl)sulfon-amido)-N-(3,5-dicyclopropylbenzyl)acetamido)-3-isobutoxybenzoic acid] | 9.23 to 1670 h | 10 to 20 µM | – |
| CCOc1cc(C(=O)O)ccc1N(Cc1cc(C2CC2)cc(C2CC2)c1)C(=O)CN(Cc1ccc(F)cc1C#N)S(=O)(=O)c1c(F)c(F)c(F)c(F)c1F [Compound 1275, 4-(2-((N-(2-cyano-4-fluorobenzyl)-2,3,4,5,6-pentafluorophenyl)sulfonamido)-N-(3,5-dicyclopropylbenzyl)acetamido)-3-ethoxybenzoic acid] | – | 0.001 to 10 µM | 0.01 to 316 nM |

The next lines start with results.

| half-life at 25 μM (glutathione (GSH)) | Compound | IC50 [1] | IC50 (MV4-11 cells) |
| --- | --- | --- | --- |
| 9.23 to 1670 h | CC(C)(C)c1cc(CN(C(=O)CN(Cc2ccccc2F)S(=O)(=O)c2c(F)c(F)c(F)c(F)c2F)c2ccc(C(=O)O)cc2OC2CC2)cc(C2CC2)c1 [Compound 1062, 4-(N-(3-(tert-butyl)-5-cyclopropylbenzyl)-2-(N-(2-fluorobenzyl)-(2,3,4,5,6-pentafluoro-phenyl)sulfonamido)acetamido)-3-cyclopropoxybenzoic acid] | 10 to 20 µM | 0.01 to 316 nM |
| 2.37 to 4.12 h | COc1cc(C(=O)O)ccc1N(Cc1cc(C2CC2)cc(C2CC2)c1)C(=O)CN(Cc1ncccc1C(F)(F)F)S(=O)(=O)c1c(F)c(F)c(F)c(F)c1F [Compound 1162, 4-(N-(3,5-dicyclopropylbenzyl)-2-(N-((3-(trifluoromethyl)pyridin-2-yl)methyl)-(2,3,4,5,6-pentafluoro-phenyl)sulfonamido)acetamido)-3-methoxybenzoic acid] | 10 to 20 µM | – |
| 2.37 to 4.12 h | O=C(O)c1ccc(N(Cc2cc(C3CC3)cc(N3CCCC3)c2)C(=O)CN(Cc2cnccc2C(F)(F)F)S(=O)(=O)c2c(F)c(F)c(F)c(F)c2F)c(OC2CC2)c1 [Compound 1190, 3-cyclopropoxy-4-(N-(3-cyclopropyl-5-(pyrrolidin-1-yl)benzyl)-2-(N-((4-(trifluoromethyl)pyridin-3-yl)methyl)-(2,3,4,5,6-pentafluoro-phenyl)sulfonamido)acetamido)benzoic acid] | 0.001 to 10 µM | – |
| 4.12 to 9.23 h | O=C(O)c1ccc(N(Cc2cc(C3CC3)cc(C3CC3)c2)C(=O)CN(Cc2ccc(F)cc2C(F)(F)F)S(=O)(=O)c2c(F)c(F)c(F)c(F)c2F)c(OC2CC2)c1 [Compound 1223, 3-cyclopropoxy-4-(N-(3,5-dicyclopropylbenzyl)-2-(N-(4-fluoro-2-(trifluoromethyl)benzyl)-(2,3,4,5,6-pentafluoro-phenyl)sulfonamido)acetamido)benzoic acid] | 20 to 30 µM | – |
| 2.37 to 4.12 h | O=C(O)c1ccc(N(Cc2cc(C3CC3)cc(C3CC3)c2)C(=O)CN(Cc2ccc(F)cc2Cl)S(=O)(=O)c2c(F)c(F)c(F)c(F)c2F)c(OC2CCOCC2)c1 [Compound 1230, 4-(2-(N-(2-chloro-4-fluorobenzyl)-(2,3,4,5,6-pentafluorophenyl)sulfon-amido)-N-(3,5-dicyclopropylbenzyl)acetamido)-3-((tetrahydro-2H-pyran-4-yl)oxy)benzoic acid] | 0.001 to 10 µM | – |
| 2.37 to 4.12 h | O=C(O)c1ccc(N(Cc2nc(C3CC3)cc(C3CC3)n2)C(=O)CN(Cc2ccc(F)cc2Cl)S(=O)(=O)c2c(F)c(F)c(F)c(F)c2F)c(OC2CC2)c1 [Compound 1247, 4-(2-(N-(2-chloro-4-fluorobenzyl)-(2,3,4,5,6-pentafluorophenyl)sulfon-amido)-N-((4,6-dicyclopropylpyrimidin-2-yl)methyl)acetamido)-3-cyclopropoxybenzoic acid] | 10 to 20 µM | – |
| 2.37 to 4.12 h | CC(C)(C)c1cc(CN(C(=O)CN(Cc2ccc(F)cc2Cl)S(=O)(=O)c2c(F)c(F)c(F)c(F)c2F)c2ccc(C(=O)O)cc2O[C@H]2CCOC2)cc(C2CC2)c1 [Compound 1248, (S)-4-(N-(3-(tert-butyl)-5-cyclopropylbenzyl)-2-(N-(2-chloro-4-fluorobenzyl)-(2,3,4,5,6-pentafluorophenyl)sulfon-amido)acetamido)-3-((tetrahydrofuran-3-yl)oxy)benzoic acid] | 0.001 to 10 µM | – |
| 2.37 to 4.12 h | CC(C)(C)c1cc(CN(C(=O)CN(Cc2ccc(F)cc2Cl)S(=O)(=O)c2c(F)c(F)c(F)c(F)c2F)c2ccc(C(=O)O)cc2O[C@@H]2CCOC2)cc(C2CC2)c1 [Compound 1249, (R)-4-(N-(3-(tert-butyl)-5-cyclopropylbenzyl)-2-(N-(2-chloro-4-fluorobenzyl)-(2,3,4,5,6-pentafluorophenyl)sulfon-amido)acetamido)-3-((tetrahydrofuran-3-yl)oxy)benzoic acid] | 10 to 20 µM | – |
| 0.00167 to 2.37 h | O=C(O)c1ccc(N(Cc2cc(C3CC3)cc(C3CC3)c2)C(=O)CN(Cc2ccc(F)cc2Cl)S(=O)(=O)c2c(F)c(F)c(F)c(F)c2F)c(OCC2COC2)c1 [Compound 1257, 4-(2-(N-(2-chloro-4-fluorobenzyl)-(2,3,4,5,6-pentafluorophenyl)sulfon-amido)-N-(3,5-dicyclopropylbenzyl)acetamido)-3-(oxetan-3-ylmethoxy)benzoic acid] | 10 to 20 µM | – |
